Assay results reported in patent US20210070748A1, “INHIBITORS OF BRUTONS TYROSINE KINASE” (Pharmacyclics LLC, priority 2015, published 2021).

Assays:
JAK3 = biological target: T1, JAK3 (Homo sapiens, UniProt P52333); test: Inhibition of a panel of kinases, in vitro HotSpot kinase assay: JAK3; format: biochemical; details: D-compounds panel data; 1 μM ATP; read-out: IC50 JAK3
T1 sequence (P52333 1-1124): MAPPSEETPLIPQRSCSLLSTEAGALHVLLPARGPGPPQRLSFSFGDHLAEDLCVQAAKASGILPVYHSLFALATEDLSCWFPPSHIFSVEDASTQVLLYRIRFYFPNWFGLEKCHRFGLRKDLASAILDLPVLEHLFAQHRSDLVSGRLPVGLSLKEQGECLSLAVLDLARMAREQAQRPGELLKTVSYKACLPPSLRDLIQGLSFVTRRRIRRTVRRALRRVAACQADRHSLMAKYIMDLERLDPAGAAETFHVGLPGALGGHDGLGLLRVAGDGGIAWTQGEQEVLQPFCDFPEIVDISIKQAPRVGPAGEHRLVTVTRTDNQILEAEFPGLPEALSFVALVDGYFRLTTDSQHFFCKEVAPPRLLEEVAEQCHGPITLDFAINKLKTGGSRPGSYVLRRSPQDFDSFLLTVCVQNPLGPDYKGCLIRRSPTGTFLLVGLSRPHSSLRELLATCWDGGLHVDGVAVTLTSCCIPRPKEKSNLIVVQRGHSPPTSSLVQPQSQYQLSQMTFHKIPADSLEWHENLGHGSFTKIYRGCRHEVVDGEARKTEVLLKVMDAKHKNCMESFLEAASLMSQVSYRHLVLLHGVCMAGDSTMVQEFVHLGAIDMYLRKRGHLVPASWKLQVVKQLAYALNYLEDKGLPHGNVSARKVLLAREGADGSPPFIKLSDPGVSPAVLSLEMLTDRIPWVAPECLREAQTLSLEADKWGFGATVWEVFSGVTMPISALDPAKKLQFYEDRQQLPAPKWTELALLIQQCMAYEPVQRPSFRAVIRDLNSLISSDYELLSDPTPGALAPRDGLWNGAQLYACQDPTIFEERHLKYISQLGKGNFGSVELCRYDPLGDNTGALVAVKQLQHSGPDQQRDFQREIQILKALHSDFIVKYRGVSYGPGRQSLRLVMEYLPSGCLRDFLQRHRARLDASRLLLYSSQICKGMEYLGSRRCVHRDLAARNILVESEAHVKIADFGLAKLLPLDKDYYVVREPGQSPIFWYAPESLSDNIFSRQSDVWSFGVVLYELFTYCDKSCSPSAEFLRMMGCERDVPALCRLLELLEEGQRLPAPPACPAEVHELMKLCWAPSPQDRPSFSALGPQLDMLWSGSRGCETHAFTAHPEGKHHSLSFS

EGFR = EGFR (Homo sapiens, UniProt P00533); test: Inhibition of a panel of kinases, in vitro HotSpot kinase assay: EGFR; format: biochemical; details: D-compounds panel data; 1 μM ATP
Description: The degree of inhibition of a panel of kinases is determined using the in vitro HotSpot kinase assay (purified enzymes, ^33P-ATP, an appropriate substrate and 1 μM ATP).

Sequence of EGFR (P00533 25-1210): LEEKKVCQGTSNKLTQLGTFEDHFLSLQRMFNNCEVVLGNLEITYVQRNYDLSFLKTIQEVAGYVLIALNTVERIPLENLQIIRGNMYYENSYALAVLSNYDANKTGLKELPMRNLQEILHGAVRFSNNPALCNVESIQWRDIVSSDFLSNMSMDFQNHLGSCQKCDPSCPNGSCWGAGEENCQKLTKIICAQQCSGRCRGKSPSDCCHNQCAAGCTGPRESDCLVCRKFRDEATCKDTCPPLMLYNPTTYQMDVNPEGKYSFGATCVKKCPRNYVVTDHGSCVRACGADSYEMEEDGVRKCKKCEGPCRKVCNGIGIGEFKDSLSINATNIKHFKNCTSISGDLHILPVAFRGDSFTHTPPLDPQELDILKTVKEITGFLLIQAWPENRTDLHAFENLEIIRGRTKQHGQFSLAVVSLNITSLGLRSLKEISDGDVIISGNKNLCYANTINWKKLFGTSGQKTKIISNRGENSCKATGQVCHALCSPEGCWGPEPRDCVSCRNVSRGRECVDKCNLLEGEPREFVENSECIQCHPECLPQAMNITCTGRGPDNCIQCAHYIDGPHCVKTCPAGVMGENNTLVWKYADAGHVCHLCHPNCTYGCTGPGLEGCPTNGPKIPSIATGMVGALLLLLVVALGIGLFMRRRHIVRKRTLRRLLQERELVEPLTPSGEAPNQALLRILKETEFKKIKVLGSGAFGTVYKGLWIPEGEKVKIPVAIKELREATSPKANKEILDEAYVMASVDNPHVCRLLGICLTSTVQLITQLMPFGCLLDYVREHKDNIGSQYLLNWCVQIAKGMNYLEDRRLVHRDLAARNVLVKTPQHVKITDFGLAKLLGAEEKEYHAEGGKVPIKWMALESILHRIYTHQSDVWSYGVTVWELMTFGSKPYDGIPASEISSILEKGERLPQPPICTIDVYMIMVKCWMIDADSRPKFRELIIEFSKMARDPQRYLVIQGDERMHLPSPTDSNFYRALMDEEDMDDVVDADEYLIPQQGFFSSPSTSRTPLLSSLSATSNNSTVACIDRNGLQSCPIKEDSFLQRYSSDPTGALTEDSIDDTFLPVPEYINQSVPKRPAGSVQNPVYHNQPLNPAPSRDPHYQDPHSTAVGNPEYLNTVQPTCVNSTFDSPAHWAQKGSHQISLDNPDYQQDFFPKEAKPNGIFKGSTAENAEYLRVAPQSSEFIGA

Question: Which IC50 (JAK3) does the source give for Cn1cc(Nc2nc(N3CC[C@@H](O)[C@H](NC(=O)c4ccc(C5CC5)cc4)C3)cnc2C(N)=O)cn1 (racemic) [Example D-26, (racemic)-trans-5-[3-(4-cyclopropylbenzamido)-4-hydroxypiperidin-1-yl]-3-[(1-methyl-1H-pyrazol-4-yl)amino]pyrazine-2-carboxamide] here?
Answer: > 10 µM

Question: What about the IC50 (EGFR) of the same compound?
Answer: > 10 µM

Question: What does the source list for Cn1cc(Nc2nc(N3C[C@H](CO)C[C@H](NC(=O)c4ccc(C5CC5)cc4)C3)cnc2C(N)=O)cn1 (racemic) [Example D-43, (racemic)-cis-5-[3-(4-cyclopropylbenzamido)-5-(hydroxymethyl)piperidin-1-yl]-3-[(1-methyl-1H-pyrazol-4-yl)amino]pyrazine-2-carboxamide]?
Answer: IC50 (JAK3): 0.1 to 1 µM; IC50 (EGFR): 1 to 10 µM

Question: Which IC50 (JAK3) does the source give for CN(C)C(=O)N1CC[C@@H]2[C@H]1CCCN2c1cnc(C(N)=O)c(Nc2cnn(C)c2)n1 (racemic) [Example D-50, (racemic)-cis-5-[1-(dimethylcarbamoyl)-octahydro-1H-pyrrolo[3,2-b]pyridin-4-yl]-3-[(1-methyl-1H-pyrazol-4-yl)amino]pyrazine-2-carboxamide] here?
Answer: 1 to 10 µM

Question: What about the IC50 (EGFR) of the same compound?
Answer: > 10 µM

Question: How did the IC50 (JAK3) turn out when Cn1cc(Nc2nc(N3CCC[C@@H]4[C@H]3CCN4C(=O)c3ccccc3)cnc2C(N)=O)cn1 (racemic) [Example D-54, (racemic)-cis-5-{1-benzoyl-octahydro-1H-pyrrolo[3,2-b]pyridin-4-yl}-3-[(1-methyl-1H-pyrazol-4-yl)amino]pyrazine-2-carboxamide] was run?
Answer: 1 to 10 µM

Question: And the IC50 (EGFR)?
Answer: > 10 µM

Question: With CN(C)C(=O)N[C@H]1CCCN(c2cnc(C(N)=O)c(Nc3ccc4ncccc4c3)n2)[C@@H]1CO (racemic) [Example D-64, trans 5-[3-[(dimethylcarbamoyl)amino]-2-(hydroxymethyl)piperidin-1-yl]-3-[(quinolin-6-yl)amino]pyrazine-2-carboxamide] as the compound, how does the IC50 (JAK3) read?
Answer: > 10 µM

Question: What about the IC50 (EGFR) of the same compound?
Answer: > 10 µM

Question: What does the source list for CN(C)C(=O)N[C@H]1CCCN(c2cnc(C(N)=O)c(Nc3ccc4ncccc4c3)n2)[C@H]1CO (racemic) [Example D-65, cis 5-[3-[(dimethylcarbamoyl)amino]-2-(hydroxymethyl)piperidin-1-yl]-3-[(quinolin-6-yl)amino]pyrazine-2-carboxamide]?
Answer: IC50 (JAK3): > 10 µM; IC50 (EGFR): > 10 µM

Question: What does the source list for Cn1cc(Nc2nc(N3CCC(NC(=O)c4ccc(C5CC5)cc4)C(O)C3)cnc2C(N)=O)cn1 (single isomer, unassigned) [Example D-28, Trans-5-[4-(4-cyclopropylbenzamido)-3-hydroxypiperidin-1-yl]-3-[(1-methyl-1H-pyrazol-4-yl)amino]pyrazine-2-carboxamide]?
Answer: IC50 (JAK3): > 10 µM; IC50 (EGFR): > 10 µM

Question: What does the source list for Cn1cc(Nc2nc(N3CCC(NC(=O)c4ccc(C5CC5)cc4)C(O)C3)cnc2C(N)=O)cn1 (single isomer, unassigned) [Example D-29, Trans-5-[4-(4-cyclopropylbenzamido)-3-hydroxypiperidin-1-yl]-3-[(1-methyl-1H-pyrazol-4-yl)amino]pyrazine-2-carboxamide]?
Answer: IC50 (JAK3): > 10 µM; IC50 (EGFR): > 10 µM

Question: Which IC50 (JAK3) does the source give for C[C@@H]1[C@H](NC(=O)c2ccc(C3CC3)cc2F)CCCN1c1cnc(C(N)=O)c(Nc2cnn(C)c2)n1 [Example D-1, 5-[(2R,3R)-3-(4-cyclopropyl-2-fluorobenzamido)-2-methylpiperidin-1-yl]-3-[(1-methyl-1H-pyrazol-4-yl)amino]pyrazine-2-carboxamide] here?
Answer: 1 to 10 µM

Question: And the IC50 (EGFR)?
Answer: 1 to 10 µM

Question: For Cc1cc(Nc2nc(N3CCC[C@@H](NC(=O)c4ccc(C5CC5)cc4F)C3)cnc2C(N)=O)on1 [Example D-2, 5-[(3R)-3-(4-cyclopropyl-2-fluorobenzamido)piperidin-1-yl]-3-[(3-methyl-1,2-oxazol-5-yl)amino]pyrazine-2-carboxamide], which IC50 (JAK3) is on record?
Answer: 1 to 10 µM

Question: What about the IC50 (EGFR) of the same compound?
Answer: > 10 µM

Question: Which results are given for NC(=O)c1ncc(N2CCC[C@@H](NC(=O)c3ccc(C4CC4)cc3F)C2)nc1Nc1cc(-c2ccccc2)ns1 [Example D-3, 5-[(3R)-3-(4-cyclopropyl-2-fluorobenzamido)piperidin-1-yl]-3-[(3-phenyl-1,2-thiazol-5-yl)amino]pyrazine-2-carboxamide]?
Answer: IC50 (JAK3): > 10 µM; IC50 (EGFR): > 10 µM

Question: How did the IC50 (JAK3) turn out when Cc1ncc(Nc2nc(N3CCC[C@@H](NC(=O)c4ccc(C5CC5)cc4F)C3)cnc2C(N)=O)s1 [Example D-4, 5-[(3R)-3-(4-cyclopropyl-2-fluorobenzamido)piperidin-1-yl]-3-[(2-methyl-1,3-thiazol-5-yl)amino]pyrazine-2-carboxamide] was run?
Answer: 1 to 10 µM

Question: What about the IC50 (EGFR) of the same compound?
Answer: > 10 µM

Question: For C[C@@H]1[C@H](N2Cc3cc(Br)ccc3C2=O)CCCN1c1cnc(C(N)=O)c(Nc2cnn(C)c2)n1 [Example D-27, 5-[(2R,3R)-3-(5-bromo-1-oxo-2,3-dihydro-1H-isoindol-2-yl)-2-methylpiperidin-1-yl]-3-[(1-methyl-1H-pyrazol-4-yl)amino]pyrazine-2-carboxamide], which IC50 (JAK3) is on record?
Answer: 0.1 to 1 µM

Question: And the IC50 (EGFR)?
Answer: 0.1 to 1 µM

Question: Which IC50 (JAK3) does the source give for C[C@H]1C[C@@H](NC(=O)c2ccc(C3CC3)cc2)CN(c2cnc(C(N)=O)c(Nc3cnn(C)c3)n2)C1 [Example D-30, 5-[(3R,5S)-3-(4-cyclopropylbenzamido)-5-methylpiperidin-1-yl]-3-[(1-methyl-1H-pyrazol-4-yl)amino]pyrazine-2-carboxamide] here?
Answer: > 10 µM

Question: And the IC50 (EGFR)?
Answer: > 10 µM

Question: With C[C@@H]1C[C@@H](NC(=O)c2ccc(C3CC3)cc2)CN(c2cnc(C(N)=O)c(Nc3cnn(C)c3)n2)C1 [Example D-31, 5-[(3R,5R)-3-(4-cyclopropylbenzamido)-5-methylpiperidin-1-yl]-3-[(1-methyl-1H-pyrazol-4-yl)amino]pyrazine-2-carboxamide] as the compound, how does the IC50 (JAK3) read?
Answer: 1 to 10 µM

Question: What about the IC50 (EGFR) of the same compound?
Answer: > 10 µM

Question: With C[C@@H]1C[C@H](NC(=O)c2ccc(C3CC3)cc2)CN(c2cnc(C(N)=O)c(Nc3cnn(C)c3)n2)C1 [Example D-32, 5-[(3S,5R)-3-(4-cyclopropylbenzamido)-5-methylpiperidin-1-yl]-3-[(1-methyl-1H-pyrazol-4-yl)amino]pyrazine-2-carboxamide] as the compound, how does the IC50 (JAK3) read?
Answer: > 10 µM

Question: And the IC50 (EGFR)?
Answer: > 10 µM

Question: How did the IC50 (JAK3) turn out when C[C@@H]1[C@H](NC(=O)N(C)C)CCCN1c1cnc(C(N)=O)c(Nc2ccc(OC3CCN(C)CC3)cc2)n1 [Example D-33, 5-[(2R,3R)-3-[(dimethylcarbamoyl)amino]-2-methylpiperidin-1-yl]-3-({4-[(1-methylpiperidin-4-yl)oxy]phenyl}amino)pyrazine-2-carboxamide] was run?
Answer: 1 to 10 µM

Question: And the IC50 (EGFR)?
Answer: 0.1 to 1 µM

Question: For C[C@H]1C[C@H](NC(=O)c2ccc(C3CC3)cc2)CN(c2cnc(C(N)=O)c(Nc3cnn(C)c3)n2)C1 [Example D-34, 5-[(3S,5S)-3-(4-cyclopropylbenzamido)-5-methylpiperidin-1-yl]-3-[(1-methyl-1H-pyrazol-4-yl)amino]pyrazine-2-carboxamide], which IC50 (JAK3) is on record?
Answer: > 10 µM

Question: What about the IC50 (EGFR) of the same compound?
Answer: > 10 µM

Question: How did the IC50 (JAK3) turn out when CC(C)n1ccc(C(=O)N[C@@H]2CCCN(c3cnc(C(N)=O)c(Nc4cnn(C)c4)n3)[C@@H]2C)cc1=O [Example D-35, 3-[(1-methyl-1H-pyrazol-4-yl)amino]-5-[(2R,3R)-2-methyl-3-[2-oxo-1-(propan-2-yl)-1,2-dihydropyridine-4-amido]piperidin-1-yl]pyrazine-2-carboxamide] was run?
Answer: 0.1 to 1 µM

Question: What about the IC50 (EGFR) of the same compound?
Answer: 1 to 10 µM

Question: Which IC50 (JAK3) does the source give for C[C@@H]1[C@H](N2Cc3cc(C4CC4)ccc3C2=O)CCCN1c1cnc(C(N)=O)c(Nc2cnn(C)c2)n1 [Example D-36, 5-[(2R,3R)-3-(5-cyclopropyl-1-oxo-2,3-dihydro-1H-isoindol-2-yl)-2-methylpiperidin-1-yl]-3-[(1-methyl-1H-pyrazol-4-yl)amino]pyrazine-2-carboxamide] here?
Answer: 0.1 to 1 µM

Question: What about the IC50 (EGFR) of the same compound?
Answer: 0.1 to 1 µM

Question: How did the IC50 (JAK3) turn out when C[C@@H]1[C@H](N2CCN(C)C2=O)CCCN1c1cnc(C(N)=O)c(Nc2ccc(C3(C)CCN(C4CC4)CC3)cc2)n1 [Example D-38, 3-{[4-(1-cyclopropyl-4-methylpiperidin-4-yl)phenyl]amino}-5-[(2R,3R)-2-methyl-3-(3-methyl-2-oxoimidazolidin-1-yl)piperidin-1-yl]pyrazine-2-carboxamide] was run?
Answer: 0.01 to 0.1 µM

Question: What about the IC50 (EGFR) of the same compound?
Answer: 0.1 to 1 µM

Question: With Cn1cc(Nc2nc(N3CCC[C@@H](NC(=O)c4ccc(C(C)(C)O)cc4)C3)nnc2C(N)=O)cn1 [Example D-39, 3-[(3R)-3-[4-(2-hydroxypropan-2-yl)benzamido]piperidin-1-yl]-5-[(1-methyl-1H-pyrazol-4-yl)amino]-1,2,4-triazine-6-carboxamide] as the compound, how does the IC50 (JAK3) read?
Answer: 0.1 to 1 µM

Question: And the IC50 (EGFR)?
Answer: > 10 µM
